Measurements reported in ChEMBL document CHEMBL5352478, “Novel pyridine-containing histone deacetylase inhibitors strongly arrest proliferation, induce apoptosis and modulate miRNAs in cancer cells” (Eur J Med Chem, 2023).

Key:
A549 = assay: cells; assay type: functional, cell-based; conditions: Homo sapiens, A549, 72 h
K562 = assay: cells; assay type: functional, cell-based; conditions: Homo sapiens, K562, 72 h
HCT-116 = assay: cells; assay type: functional, cell-based; conditions: Homo sapiens, HCT-116, 72 h
U-937 = assay: Induction of cell cycle arrest in human U-937 cells assessed as accumulation of cells in G1 phase at 5 uM for 48 hrs by PI staining based flow cytometric analysis; assay type: functional

Question: With `Nc1ccccc1NC(=O)c1ccc(CNC(=O)OCc2cccnc2)cc1` [ENTINOSTAT] as the molecule, how does the IC50 (A549) read?
Answer: Its IC50 is 2250 nM.

Question: What about the IC50 (K562) of the same molecule?
Answer: The IC50 was 570 nM.

Question: And the IC50 (HCT-116)?
Answer: The IC50 was 1060 nM.

Question: And the Activity (U-937)?
Answer: The Activity was 70%.
